“Also recorded” adds a separate entry of the source. Where two headings read alike, the source gives them in different places. Each block holds one molecule with its values, some of them ahead of it.
Legend:
[1] = test system: human glioblastoma U87 cells; experiment: Live-cell fluorescence imaging of cellular accumulation in U87 cells; format: cell-based; conditions: for intracellular localization: U87 cells, 100× objective, with mitotracker / mitoSOX
Procedure: FIG. 4 includes images showing cellular accumulation of SLN128 (20 nM) in human glioblastoma (U87) cells using live-cell fluorescence imaging: intracellular localization in accordance with the present disclosure. SLN128 was incubated at 37° C. for 1 h with either mitotracker red/or mitoSOX Deep Red in human U87MG cells. Images were acquired using a 100×objective.
FIG. 5 includes images showing cellular accumulation of SLN128 (20 nM) in human glioblastoma (U87) cells using live-cell fluorescence imaging in accordance with the present disclosure. SLN128 was incubated for 1 h either with media (control), LPS treated (1 μg/mL; 3 h) or 3-nitropropionic acid (3-NP; 10 μg/mL) human U87MG cells: Images were acquired using a 20×objective.
FIG. 6 is a bar graph showing cellular accumulation of SLN128 in either serum and glucose deprived- or LPS or 3 NP-treated U87 cells in either presence or absence of resveratrol (10 μM) in accordance with the present disclosure. Images were acquired using a 20×objective (all panels represent same magnification) in live human U87 cells. While U87 control cells were plated under normal conditions, both serum-and glucose-deprived (Starvation), and LPS/3-NP treated cells were allowed to recover in presence of resveratrol) for 24 h and treated with SLN-128(20 nM) for 60 min, cell uptake was evaluated via live-cell imaging, and quantified as described earlier. Corrected Total Cell Fluorescence (CTCF)=Integrated Density-(Area of selected cell X Mean fluorescence of background readings); (mean±SD), where **p<0.01 and […] are determined by an unpaired student t-test.
Lipopolysaccharide (LPS), is an endotoxin, released from Gram-negative bacteria. Next, the ability of SLN128 to detect either LPS or 3-Nitropropionic acid (3-NP) induced ROS in human cells was evaluated through live-cell fluorescence imaging. LPS is detected by toll-like receptor 4 (TLR4), a broadly expressed pattern recognition receptor found both on different cell types, including glial cells, and neurons. TLR4 engagement triggers the generation of mitochondrial superoxide from electron transport complex I, which in turn promotes bacterial killing. LPS treatment also triggers increased cytokine and chemokine expression in brain thus driving inflammation. […] To this end, intracellular localization of SLN-128 in either the presence or absence of mitotracker deep red (control) was simulataneously assessed in either the LPS or 3-NP stimulated human glioblastoma U87 cells (see e.g., FIG. 4). […] The probe uptake was quantified as corrected total cell fluorescence (CTCF) using image J as described earlier. […] Uptake in brain and other critical organs was analyzed in terms of percent injected dose per gram of the tissue (% ID/g).

[2] = test system: microglial cells and neurons in brain sections; experiment: Ex vivo fluorescence of brain sections after tail-vein injection of unlabeled SLN128 into 3-NP treated mice; format: in vivo; conditions: anti-IBA1 and anti-NeuN
Procedure: FIG. 11 includes images showing post PET/CT imaging in accordance with the present disclosure. SLN128 (100 μL; 1 mg/mL) was injected through tail-vein into 3NP-or saline treated mice, and brain tissue was processed as described in FIG. 10A-FIG. 10D.
Systemic administration of LPS induces oxidative stress and resulting a release of inflammatory cytokines, sustained microglial activation, and neuronal cell loss in brain areas, such as the hippocampus, cerebral cortex, substantia nigra, ventral tegmental area, and thalamus, alters the levels of neurotransmitters in adult animals, and cerebellum. Thus LPS-induced inflammation provides a useful rodent model for preclinical imaging of ^18F-SLN-128. […] Finally, the brain uptake (see e.g., FIG. 9C) derived from PET imaging also correlated with 60 min post imaging quantified uptake (see e.g., FIG. 9D) indicating potential of the radiotracer for imaging endotoxin mediated brain inflammation in vivo. Mitochondrial dysfunction is a major event in the pathogenesis of Huntington disease (HD). It has also been reported that systemic 3-NP administration leads to oxidized proteins in the striatum, as well as a massive loss of striatal neurons. To evaluate potential of ^18F-SLN-128 PET imaging for 3NP-induced ROS-mediated neurodegeneration in mice, PET/CT imaging was performed.

[3] = test system: reactive oxygen species (superoxide, hydroxyl radical); experiment: Detection of reactive oxygen species in vitro, fluorescence plate reader assay (G-GO, X-XO, SIN-1 systems); format: biochemical
Procedure: FIG. 3 is a bar graph showing evaluation of SLN128 for detection of reactive oxygen species in vitro in accordance with the present disclosure. Data are shown as mean fluorescence intensity (arbitrary units)±SD, where ****p<0.0001 values are determined by an unpaired student t-test. (Abbreviations: G: Glucose; GOX: Glucose oxidase; HRP: Horseradish peroxidase; X: Xanthine; XO: Xanthine oxidase; SOD: Superoxide Dismutase; CAT: Catalase. All values are normalized to fluorescence output of untreated SLN128 (control). Please note response to HRP induced hydroxyl radical in GGO system, its mitigation with CAT; and response to HX-XO (superoxide) and its intervention with SOD.
Of note, superoxide can originate from numerous sources in vivo, including the mitochondrial electron transport chain and NADPH oxidase(s), which are activated under conditions of inflammation, ischemia, and tissue injury. […] Therefore, the ability to detect elevated ROS in patients could provide a better understanding of relationships between ROS, tissue injury, and disease staging including information on signaling cascade that promote inflammation. To measure ROS production, various methods that use colorimetry, chemiluminescence, and fluorescence have been deployed, While xanthine-xanthine oxidase (X-XO) and SIN-1 have been used for production of superoxide and nitric oxide (wherein the combination produces peroxynitrite), respectively, the glucose-glucose oxidase (G-GO) system is useful for production of hydrogen peroxide. Employing concentrations of SLN128 and G-GO, and X-XO in vitro conditions described previously, the ability of SLN-128 or 12 to detect different reactive oxygen species at 37° C. in PBS was evaluated under physiological conditions (pH 7.2) and normalized by background fluorescence output of untreated SLN128 as a control using a fluorescence plate reader assay (see e.g., FIG. 3). […] Under both conditions, oxidation of the probe was neutralized by the addition of superoxide dismutase (SOD) (see e.g., FIG. 3). […] (see e.g., FIG. 3).

[4] = Fluorescence emission of the probe before and after oxidation; format: physicochemical
[5] = normal mice, cited from earlier work
[6] = PBS with 1.0% ethanol, excited with a 402 nm laser

broad emission peak [4, 6]: 520-540 nm
emission maximum [4, 6]: 530 nm
enhancement of mean fluorescence intensity following oxidation ([4]; following its oxidation): 4 fold
SMILES: COc1ccc2c(c1)N(C)C(c1ccc(O)c(OCCF)c1)c1cccn1-2 (stereo not shown) [SLN128]
fluorescence in LPS- or 3-NP stimulated cells compared to untreated U87 cells ([1]; LPS or 3-NP stimulation): higher fluorescence
intracellular localization [1]: penetrates into mitochondria of U87 cells
intracellular localization ([1]; listed as SLN 128): maps both mitotracker and mitoSOX
monitoring of therapeutic effect (CTCF) ([1]; presence or absence of resveratrol): ability to monitor resveratrol-induced mitigation of ROS
localization in brain sections ex vivo [2]: localizes in microglial cells and neurons; also recorded: maps markers for microglial and neuronal cells
reactive oxygen species detected [3]: both superoxide and hydroxyl radical
fluorescence response in G-GO system ([3]; 37° C., PBS pH 7.2): only a slight increase in fluorescence
response to HRP in G-GO system (hydroxyl radical) ([3]; 37° C., PBS pH 7.2, normalized to untreated SLN128): 10 fold
detection of superoxide ([3]; xanthine oxidase/xanthine or SIN-1 with CPTIO, neutralized by SOD): ability to detect superoxide

SMILES: CNc1ccc(/C=C/c2ccc(OCCOCCOCC[18F])nc2)cc1 [[^18F]-AVID-45, [^18F]-Florbetapir]
brain uptake ([5]; 2 min): 7.33±1.54 % ID/g
brain uptake ([5]; 2 h): 1.80±0.07 % ID/g
brain uptake ratio 2 min/2 h [5]: 4.07

SMILES: CNc1ccc(/C=C/c2ccc(OCCOCCOCC[18F])cc2)cc1 [[^18F]-Florbetaben]
brain uptake ([5]; 2 min): 4.77 % ID/g
brain uptake ([5]; 4 h): 0.95 % ID/g
brain uptake ratio 2 min/4 h [5]: 5.0

SMILES: COCOc1ccc(-c2c3cccn3c3ccc(OC)cc3[n+]2C)cc1OCCF.[I-] [compound 15]
emission shift following oxidation ([4]; oxidized form): 580 nm
